Test [1] deals with T1, BuChE from equine serum (eqBuChE) (Equus caballus, UniProt P81908).
T1 construct: The BuChE freeze-dried from equine serum (eqBuChE, Sigma Aldrich); purchased Sigma Aldrich; host or cells: equine serum
As to the kind of experiment: biochemical. The format is biochemical.

Test [2] addresses T2, human erythrocyte AChE (hAChE) (Homo sapiens, UniProt P22303).
T2 construct: The human erythrocyte AChE (hAChE, aqueous buffer solution); purchased Sigma Aldrich; host or cells: human erythrocytes
Kind of test: biochemical. The format is biochemical.

Several values for one entry are separate records, joined by “and”; a condition that tells them apart may be missing. Identical values can stand only once. Like-named read-outs stand apart in the source and are kept apart here.

T1 sequence (P81908 whole entry): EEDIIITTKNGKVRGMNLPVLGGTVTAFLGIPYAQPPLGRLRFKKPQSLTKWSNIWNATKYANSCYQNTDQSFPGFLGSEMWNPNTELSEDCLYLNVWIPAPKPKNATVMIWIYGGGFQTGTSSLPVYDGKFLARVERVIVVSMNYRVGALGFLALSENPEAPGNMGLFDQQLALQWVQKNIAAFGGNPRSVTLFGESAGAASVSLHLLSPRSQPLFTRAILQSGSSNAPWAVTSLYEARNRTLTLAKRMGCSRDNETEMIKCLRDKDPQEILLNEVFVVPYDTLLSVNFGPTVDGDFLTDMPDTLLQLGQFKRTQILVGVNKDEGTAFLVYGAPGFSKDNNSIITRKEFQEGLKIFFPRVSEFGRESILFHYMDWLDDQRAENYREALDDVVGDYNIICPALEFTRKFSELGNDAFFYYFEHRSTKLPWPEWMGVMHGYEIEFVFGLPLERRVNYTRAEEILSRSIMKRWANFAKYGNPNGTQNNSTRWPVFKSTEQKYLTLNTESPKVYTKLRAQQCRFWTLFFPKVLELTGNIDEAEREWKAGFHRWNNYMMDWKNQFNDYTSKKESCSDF
T2 sequence (P22303 32-617 isoform P22303-2 limits assumed): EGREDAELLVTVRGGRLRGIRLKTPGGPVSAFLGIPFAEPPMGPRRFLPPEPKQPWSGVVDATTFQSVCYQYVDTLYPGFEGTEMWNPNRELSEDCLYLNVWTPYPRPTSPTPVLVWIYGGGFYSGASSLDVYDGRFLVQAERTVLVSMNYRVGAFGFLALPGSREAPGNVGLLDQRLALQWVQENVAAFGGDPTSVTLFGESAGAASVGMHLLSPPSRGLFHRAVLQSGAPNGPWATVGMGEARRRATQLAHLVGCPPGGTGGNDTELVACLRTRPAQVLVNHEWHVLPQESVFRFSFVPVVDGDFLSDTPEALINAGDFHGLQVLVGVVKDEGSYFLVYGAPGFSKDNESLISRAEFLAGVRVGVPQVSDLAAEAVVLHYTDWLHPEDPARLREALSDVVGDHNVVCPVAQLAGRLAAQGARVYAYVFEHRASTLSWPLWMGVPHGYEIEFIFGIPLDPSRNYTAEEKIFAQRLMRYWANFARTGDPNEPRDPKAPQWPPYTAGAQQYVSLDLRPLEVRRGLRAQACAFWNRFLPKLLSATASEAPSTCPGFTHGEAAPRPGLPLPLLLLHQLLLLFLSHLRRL

For the molecule `Cc1ccccc1OP(=O)(Oc1ccccc1C)Oc1ccccc1C` [Compound B, Tri(ortho-cresyl)phosphate], the concentration for half-maximal inhibition (IC50) (as a rule, the concentration that gives 50% inhibition) was 10 µM in test [1] (IC50 eqBuChE) and 40.7 µM in test [2] (IC50 hAChE).
Molecule `O=P(Oc1ccccc1)(Oc1ccccc1)Oc1cc(OP(=O)(Oc2ccccc2)Oc2ccccc2)cc(OP(=O)(Oc2ccccc2)Oc2ccccc2)c1` [Compound 5, 1,3,5-phloroglucinol tris(bis(diphenylphosphate))] showed an IC50 in test [1] (IC50 eqBuChE) of 100 µM.
With `O=P(Oc1c(F)cccc1F)(Oc1c(F)cccc1F)Oc1c(F)cccc1F` [Compound F, Tri(2,6-difluorophenyl)phosphate], the IC50 in test [1] (IC50 eqBuChE) is 20 µM; in test [2] (IC50 hAChE) it was 12.9 µM.
For `CC(C)(C)c1ccc(OP(=O)(Oc2ccccc2)Oc2ccc(C(C)(C)C)cc2)cc1` [Compound H, di(p-tertbutylphenyl)phenylphosphate] the same measures were 280 µM and 27.6 µM.
As to `NP(=O)(Oc1ccccc1)Oc1ccccc1` [Compound K, Diphenyl phosphoroamidate], the IC50 in test [1] is 136 µM; in test [2] it was 38.1 µM.
With `O=P(Oc1ccccc1)(Oc1ccccc1)Oc1ccc(Sc2ccc(OP(=O)(Oc3ccccc3)Oc3ccccc3)cc2)cc1` [Compound 3, 4,4′-dihydroxydiphenylthioether bis(diphenylphosphate)], the values for the IC50 in test [1] (IC50 eqBuChE) and in test [2] (IC50 hAChE) were 166 µM and 34 µM, respectively.
On to Saligenin cresyl phosphate [Compound J], for which, in test [1], the “IC50 eqBuChE” value is 0.7 µg/mL.
Take `CCCCC(CC)(COP(=O)(Oc1ccccc1)Oc1ccccc1)COP(=O)(Oc1ccccc1)Oc1ccccc1` [Compound 6, 2-butyl-2-ethyl-1,3-propanediol bis(diphenylphosphate)]: the IC50 in test [1] (IC50 eqBuChE) is 93.7 µM; in test [2] (IC50 hAChE) it was 26.3 µM.
For `O=P(Oc1ccccc1)(Oc1ccccc1)Oc1ccc(Oc2ccc(OP(=O)(Oc3ccccc3)Oc3ccccc3)cc2)cc1` [Compound 4, 4,4′-dihydroxydiphenylether bis(diphenylphosphate)] the same measures were 118 µM and 33.9 µM.
For `O=P(Oc1ccccc1)(Oc1ccccc1)Oc1ccc(OP(=O)(Oc2ccccc2)Oc2ccccc2)cc1` [Compound 1, Hydroquinone bis(diphenylphosphate)] the same measures were 186 µM and 42 µM.
As to Tricresyl phosphate [Compound P], the “IC50 eqBuChE” value in test [1] is 0.7 µg/mL. The “IC50 hAChE” value in test [2] was 16.9 µg/mL.
For `CCC(COP(=O)(Oc1ccccc1)Oc1ccccc1)(COP(=O)(Oc1ccccc1)Oc1ccccc1)COP(=O)(Oc1ccccc1)Oc1ccccc1` [Compound 7, trimethylolpropane tris(diphenylphosphate)], the IC50 in test [1] (IC50 eqBuChE) is 145 µM; in test [2] (IC50 hAChE), 22 µM.
The corresponding values for `Cc1cccc(OP(=O)(Oc2cccc(C)c2)Oc2cccc(C)c2)c1` [Compound C, Tri(meta-cresyl)phosphate] are 6.24 µM and 25.2 µM.
As to `CC(C)(C)c1ccc(OP(=O)(Oc2ccc(C(C)(C)C)cc2)Oc2ccc(C(C)(C)C)cc2)cc1` [Compound I, Tri(p-tert-butylphenyl)phosphate], the “action on butyrylcholinesterase, in words” value in test [1] is “reduced inhibition”. Moreover, the IC50 is 194 µM in test [1] (IC50 eqBuChE) and 17 µM in test [2] (IC50 hAChE). For the same molecule, the “action on acetylcholinesterase, in words” value in test [2] was “active”.
On to `O=P(OCCCl)(OCCCl)OCCCl` [Compound N, tris(chloroethyl)phosphate], for which the IC50 in test [1] (IC50 eqBuChE) was 315 µM; in test [2] (IC50 hAChE), 28.7 µM.
For `Cc1ccc(OP(=O)(Oc2ccc(C)cc2)Oc2ccc(C)cc2)cc1` [Compound D, Tri(para-cresyl)phosphate] the same measures were 116 µM and 26.3 µM.
In the case of `O=P(Oc1ccccc1)(Oc1ccccc1)Oc1ccc(-c2ccc(OP(=O)(Oc3ccccc3)Oc3ccccc3)cc2)cc1` [Compound 2, 4,4′-dihydroxybiphenyl bis(diphenylphosphate)], the IC50 in test [1] (IC50 eqBuChE) is 155 µM and 244 µM; in test [2] (IC50 hAChE) it was 38.4 µM and 128 µM.
As to `CCCCC(CC)COP(=O)(Oc1ccccc1)Oc1ccccc1` (stereo not drawn) [Compound A, 2-ethylhexyl diphenylphosphate], the results for the IC50 in test [1] (IC50 eqBuChE) and in test [2] (IC50 hAChE) were 1.93 µM and 35 µM, respectively.

These data come from patent US11230683B2 (priority 2020, dated 2022).
